Laboratory results from patent publication US20230398220A1, “SIRNA-NANOBOWL-MEDIATED INTERVENTION OF COVID-19” (THE REGENTS OF THE UNIVERSITY OF CALIFORNIA, priority 2020, published 2023).

System: HEK 298 cell line
Assay: MTT viability of HEK cells treated with nanobowls pre-loaded with siRNA and dexamethasone
Settings: normalized to untreated control

Question: With `C[C@@H]1C[C@H]2[C@@H]3CCC4=CC(=O)C=C[C@]4(C)[C@@]3(F)[C@@H](O)C[C@]2(C)[C@@]1(O)C(=O)CO` [dexamethasone] as the compound, how does the “cell viability (MTT)” value read?
Answer: cell viability decreased
